Reference: US8927717B1, “Thiochromeno[2,3-c]quinolin-12-one derivatives, preparation method and application thereof” (National Defense Medical Center, priority 2014, dated 2015)

Columns and labels:
CCRF-CEM = type: cell-based; conditions: Leukemia; 10^−5 molar; 48 hours; SRB
HL-60(TB) = type: cell-based; conditions: Leukemia; 10^−5 molar; 48 hours; SRB
K-562 = type: cell-based; conditions: Leukemia; 10^−5 molar; 48 hours; SRB
MOLT-4 = type: cell-based; conditions: Leukemia; 10^−5 molar; 48 hours; SRB
RPMI-8226 = type: cell-based; conditions: Leukemia; 10^−5 molar; 48 hours; SRB
SR = type: cell-based; conditions: Leukemia; 10^−5 molar; 48 hours; SRB
A549/ATCC = type: cell-based; conditions: Non-small cell lung cancer; 10^−5 molar; 48 hours; SRB
HOP-62 = type: cell-based; conditions: Non-small cell lung cancer; 10^−5 molar; 48 hours; SRB
HOP-92 = type: cell-based; conditions: Non-small cell lung cancer; 10^−5 molar; 48 hours; SRB
NCI-H226 = type: cell-based; conditions: Non-small cell lung cancer; 10^−5 molar; 48 hours; SRB
NCI-H23 = type: cell-based; conditions: Non-small cell lung cancer; 10^−5 molar; 48 hours; SRB
NCI-H460 = type: cell-based; conditions: Non-small cell lung cancer; 10^−5 molar; 48 hours; SRB
NCI-H522 = type: cell-based; conditions: Non-small cell lung cancer; 10^−5 molar; 48 hours; SRB
COLO 205 = type: cell-based; conditions: Colon cancer; 10^−5 molar; 48 hours; SRB
HCC-2998 = type: cell-based; conditions: Colon cancer; 10^−5 molar; 48 hours; SRB
HCT-116 = type: cell-based; conditions: Colon cancer; 10^−5 molar; 48 hours; SRB
HCT-15 = type: cell-based; conditions: Colon cancer; 10^−5 molar; 48 hours; SRB
HT29 = type: cell-based; conditions: Colon cancer; 10^−5 molar; 48 hours; SRB
KM12 = test: cells; type: cell-based; conditions: Colon cancer; 10^−5 molar; 48 hours; SRB
SW-620 = type: cell-based; conditions: Colon cancer; 10^−5 molar; 48 hours; SRB
SF-268 = type: cell-based; conditions: CNS cancer; 10^−5 molar; 48 hours; SRB
SF-295 = type: cell-based; conditions: CNS cancer; 10^−5 molar; 48 hours; SRB
SF-539 = type: cell-based; conditions: CNS cancer; 10^−5 molar; 48 hours; SRB
SNB-19 = type: cell-based; conditions: CNS cancer; 10^−5 molar; 48 hours; SRB
SNB-75 = type: cell-based; conditions: CNS cancer; 10^−5 molar; 48 hours; SRB
U251 = type: cell-based; conditions: CNS cancer; 10^−5 molar; 48 hours; SRB
LOX IMVI = type: cell-based; conditions: Melanoma; 10^−5 molar; 48 hours; SRB
MALME-3M = type: cell-based; conditions: Melanoma; 10^−5 molar; 48 hours; SRB
M14 = type: cell-based; conditions: Melanoma; 10^−5 molar; 48 hours; SRB
MDA-MB-435 = type: cell-based; conditions: Melanoma; 10^−5 molar; 48 hours; SRB
SK-MEL-2 = type: cell-based; conditions: Melanoma; 10^−5 molar; 48 hours; SRB
SK-MEL-28 = type: cell-based; conditions: Melanoma; 10^−5 molar; 48 hours; SRB
SK-MEL-5 = type: cell-based; conditions: Melanoma; 10^−5 molar; 48 hours; SRB
UACC-257 = type: cell-based; conditions: Melanoma; 10^−5 molar; 48 hours; SRB
UACC-62 = type: cell-based; conditions: Melanoma; 10^−5 molar; 48 hours; SRB
IGROV1 = type: cell-based; conditions: Ovarian cancer; 10^−5 molar; 48 hours; SRB
OVCAR-3 = type: cell-based; conditions: Ovarian cancer; 10^−5 molar; 48 hours; SRB
OVCAR-4 = type: cell-based; conditions: Ovarian cancer; 10^−5 molar; 48 hours; SRB
OVCAR-5 = type: cell-based; conditions: Ovarian cancer; 10^−5 molar; 48 hours; SRB
OVCAR-8 = type: cell-based; conditions: Ovarian cancer; 10^−5 molar; 48 hours; SRB
NCI/ADR-RES = type: cell-based; conditions: Ovarian cancer; 10^−5 molar; 48 hours; SRB
SK-OV-3 = type: cell-based; conditions: Ovarian cancer; 10^−5 molar; 48 hours; SRB
786-0 = type: cell-based; conditions: Renal cancer; 10^−5 molar; 48 hours; SRB
A498 = type: cell-based; conditions: Renal cancer; 10^−5 molar; 48 hours; SRB
ACHN = type: cell-based; conditions: Renal cancer; 10^−5 molar; 48 hours; SRB
CAKI-1 = type: cell-based; conditions: Renal cancer; 10^−5 molar; 48 hours; SRB
RXF 393 = type: cell-based; conditions: Renal cancer; 10^−5 molar; 48 hours; SRB
SN12C = type: cell-based; conditions: Renal cancer; 10^−5 molar; 48 hours; SRB
TK-10 = type: cell-based; conditions: Renal cancer; 10^−5 molar; 48 hours; SRB
UO-31 = type: cell-based; conditions: Renal cancer; 10^−5 molar; 48 hours; SRB
PC-3 = type: cell-based; conditions: Prostate cancer; 10^−5 molar; 48 hours; SRB
DU-145 = type: cell-based; conditions: Prostate cancer; 10^−5 molar; 48 hours; SRB
MCF7 = type: cell-based; conditions: Breast cancer; 10^−5 molar; 48 hours; SRB
MDA-MB-231/ATCC = type: cell-based; conditions: Breast cancer; 10^−5 molar; 48 hours; SRB
HS 578T = type: cell-based; conditions: Breast cancer; 10^−5 molar; 48 hours; SRB
BT-549 = type: cell-based; conditions: Breast cancer; 10^−5 molar; 48 hours; SRB
T-47D = type: cell-based; conditions: Breast cancer; 10^−5 molar; 48 hours; SRB
MDA-MB-486 = type: cell-based; conditions: Breast cancer; 10^−5 molar; 48 hours; SRB
60 cancer cell lines = test: NCI 60-cell screen, SRB, whole panel (mean, delta, range); type: cell-based; conditions: 10^−5 molar, 48 hours, SRB

Q: With O=c1c2cc(Cl)ccc2sc2c(N3CCN(Cc4ccccc4)CC3)nc3ccccc3c12 [Compound 11, 6-(4-Benzylpiperazin-1-yl)-10-chloro-12H-thiochromeno[2,3-c]quinolin-12-one] as the compound, how does the “Growth percent CCRF-CEM” value (CCRF-CEM) read?
A: 95.42%

Q: And the “Growth percent HL-60(TB)” value (HL-60(TB))?
A: 100.96%

Q: What about the “Growth percent K-562” value (K-562) of the same compound?
A: 87.84%

Q: And the “Growth percent MOLT-4” value (MOLT-4)?
A: 90.91%

Q: And the “Growth percent RPMI-8226” value (RPMI-8226)?
A: 96.63%

Q: And the “Growth percent SR” value (SR)?
A: 85.15%

Q: What about the “Growth percent A549/ATCC” value (A549/ATCC) of the same compound?
A: 106.37%

Q: And the “Growth percent HOP-62” value (HOP-62)?
A: 87.72%

Q: What about the “Growth percent HOP-92” value (HOP-92) of the same compound?
A: 70.17%

Q: And the “Growth percent NCI-H226” value (NCI-H226)?
A: 88.98%

Q: And the “Growth percent NCI-H23” value (NCI-H23)?
A: 89.94%

Q: What about the “Growth percent NCI-H460” value (NCI-H460) of the same compound?
A: 95.57%

Q: And the “Growth percent NCI-H522” value (NCI-H522)?
A: 96.69%

Q: And the “Growth percent COLO 205” value (COLO 205)?
A: 105.64%

Q: And the “Growth percent HCC-2998” value (HCC-2998)?
A: 99.32%

Q: What about the “Growth percent HCT-116” value (HCT-116) of the same compound?
A: 98.59%

Q: What about the “Growth percent HCT-15” value (HCT-15) of the same compound?
A: 94.51%

Q: What about the “Growth percent HT29” value (HT29) of the same compound?
A: 102.71%

Q: What about the “Growth percent KM12” value (KM12) of the same compound?
A: 107.75%

Q: What about the “Growth percent SW-620” value (SW-620) of the same compound?
A: 93.08%

Q: What about the “Growth percent SF-268” value (SF-268) of the same compound?
A: 100.42%

Q: What about the “Growth percent SF-295” value (SF-295) of the same compound?
A: 94.34%

Q: And the “Growth percent SF-539” value (SF-539)?
A: 108.56%

Q: What about the “Growth percent SNB-19” value (SNB-19) of the same compound?
A: 95.52%

Q: And the “Growth percent SNB-75” value (SNB-75)?
A: 82.62%

Q: And the “Growth percent U251” value (U251)?
A: 96.69%

Q: And the “Growth percent LOX IMVI” value (LOX IMVI)?
A: 94.22%

Q: What about the “Growth percent MALME-3M” value (MALME-3M) of the same compound?
A: 112.36%

Q: What about the “Growth percent M14” value (M14) of the same compound?
A: 93.00%

Q: What about the “Growth percent MDA-MB-435” value (MDA-MB-435) of the same compound?
A: 96.99%

Q: What about the “Growth percent SK-MEL-2” value (SK-MEL-2) of the same compound?
A: 107.37%

Q: What about the “Growth percent SK-MEL-28” value (SK-MEL-28) of the same compound?
A: 104.19%

Q: What about the “Growth percent SK-MEL-5” value (SK-MEL-5) of the same compound?
A: 98.38%

Q: And the “Growth percent UACC-257” value (UACC-257)?
A: 95.39%

Q: What about the “Growth percent UACC-62” value (UACC-62) of the same compound?
A: 96.00%

Q: What about the “Growth percent IGROV1” value (IGROV1) of the same compound?
A: 93.49%

Q: What about the “Growth percent OVCAR-3” value (OVCAR-3) of the same compound?
A: 101.69%

Q: What about the “Growth percent OVCAR-4” value (OVCAR-4) of the same compound?
A: 102.43%

Q: What about the “Growth percent OVCAR-5” value (OVCAR-5) of the same compound?
A: 111.92%

Q: What about the “Growth percent OVCAR-8” value (OVCAR-8) of the same compound?
A: 98.54%

Q: What about the “Growth percent NCI/ADR-RES” value (NCI/ADR-RES) of the same compound?
A: 98.31%

Q: And the “Growth percent SK-OV-3” value (SK-OV-3)?
A: 94.79%

Q: What about the “Growth percent 786-0” value (786-0) of the same compound?
A: 105.57%

Q: And the “Growth percent A498” value (A498)?
A: 94.17%

Q: And the “Growth percent ACHN” value (ACHN)?
A: 96.39%

Q: What about the “Growth percent CAKI-1” value (CAKI-1) of the same compound?
A: 94.03%

Q: What about the “Growth percent RXF 393” value (RXF 393) of the same compound?
A: 100.71%

Q: And the “Growth percent SN12C” value (SN12C)?
A: 97.70%

Q: What about the “Growth percent TK-10” value (TK-10) of the same compound?
A: 124.99%

Q: What about the “Growth percent UO-31” value (UO-31) of the same compound?
A: 64.91%

Q: What about the “Growth percent PC-3” value (PC-3) of the same compound?
A: 89.12%

Q: And the “Growth percent DU-145” value (DU-145)?
A: 111.61%

Q: What about the “Growth percent MCF7 (Table 2: MCF)” value (MCF7) of the same compound?
A: 68.32%

Q: What about the “Growth percent MDA-MB-231/ATCC” value (MDA-MB-231/ATCC) of the same compound?
A: 89.11%

Q: And the “Growth percent HS 578T” value (HS 578T)?
A: 76.42%

Q: And the “Growth percent BT-549” value (BT-549)?
A: 114.05%

Q: What about the “Growth percent T-47D” value (T-47D) of the same compound?
A: 89.22%

Q: And the “Growth percent MDA-MB-486” value (MDA-MB-486)?
A: 98.53%

Q: And the “Growth percent, Delta” value (60 cancer cell lines; delta over the cell panel)?
A: 31.28%

Q: And the “Growth percent, Mean” value (60 cancer cell lines; mean over the cell panel)?
A: 96.19%

Q: And the “Growth percent, Range” value (60 cancer cell lines; range over the cell panel)?
A: 60.08%

Q: What about the melting point of the same compound?
A: 191 to 193 °C
